The term IC50 denotes the point on the concentration scale where inhibition reaches its midpoint. What is called CC50 is the concentration that lowers cell viability or growth by half.

Consider 19 compounds from ChEMBL document CHEMBL2434925, “Synthesis and antiviral activity of a novel class of (5-oxazolyl)phenyl amines” (Eur J Med Chem, 2013).

One data set has as its system Coxsackievirus B6. Put plainly: Antiviral activity against Coxsackie B6 virus Schmitt in african green monkey Vero cells assessed as inhibition virus-induced cytopathic effect after 48 hrs. It counts as functional, organism-based. Conditions: Enterovirus B. (Damage to the host cells serves as the signal in cytopathic effect assays.)
The test system of the next data set is Hepatitis C virus. The data set can be described thus: Antiviral activity against HCV expressing pFL-J6/JFH/JC1 infected in human Huh7.5 cells assessed as inhibition of viral RNA synthesis after 96 hrs by one-step RT-PCR analysis. It counts as functional, organism-based, Hepacivirus hominis. Conditions: Huh-7, 96 h.
Data set [1] in a line: Selectivity index, ratio of CC50 for african green monkey Vero cells to IC50 for Coxsackie B3 virus Schmitt. It counts as functional.
Data set [2] in a line: Cytotoxicity against human Huh7.5 cells after 96 hrs by MTT assay. It counts as cell-based, Huh-7. A general note: Tetrazolium assays rely on reduction of a dye to a coloured formazan, in cell work by metabolically active cells.
A further data set concerns Coxsackievirus B3. Put plainly: Antiviral activity against Coxsackie B3 virus Nancy in african green monkey Vero cells assessed as inhibition virus-induced cytopathic effect after 48 hrs. It counts as functional, organism-based. Conditions: Enterovirus B.
Data set [3] can be described thus: Cytotoxicity against african green monkey Vero cells after 96 hrs by MTT assay. It counts as cell-based. Conditions: chlorocebus sabaeus.
Data set [4] is described as follows: Selectivity index, ratio of CC50 for human Huh7.5 cells to IC50 for HCV expressing pFL-J6/JFH/JC1. Format: functional, Huh-7.
A short description of data set [5]: Selectivity index, ratio of CC50 for african green monkey Vero cells to IC50 for Coxsackie B3 virus Nancy. Format: functional.

On to `COc1cc(NCc2ccncc2)ccc1-c1cnco1`, for which the IC50 stood at 15.2 µM with Coxsackievirus B6, 5.71 µM in the data set with Hepatitis C virus and 26.3 µM with Coxsackievirus B3. Moreover, the “Ratio CC50/IC50” value in data set [1] turned out to be 22.5; in data set [4] it was 12.7; in data set [5] it was 13. The results for the half-maximal cytotoxic concentration (CC50) at 96 h in data set [2] and in data set [3] were 72.2 µM and 342 µM, respectively.

On to `COc1cc(/N=C/C=C/c2ccccc2)ccc1-c1cnco1`, for which the IC50 in the data set with Coxsackievirus B6 was 18.9 µM; in the data set on Hepatitis C virus it was 6.99 µM; with Coxsackievirus B3 it was 15.1 µM. Besides, the “Ratio CC50/IC50” value in data set [1] is reported as 5.6; in data set [4], greater than 14.3; in data set [5], 7. Further, the figures for the CC50 at 96 h in data set [2] and in data set [3] were greater than 100 µM and 105 µM, respectively.

`COc1ccccc1/C=C/CNc1ccc(-c2cnco2)c(OC)c1`: the IC50 with Coxsackievirus B6 worked out at 7.34 µM; with Hepatitis C virus, 2.3 µM; in the data set on Coxsackievirus B3, 3.15 µM. The “Ratio CC50/IC50” value in data set [1] was found to be 1.7; in data set [4], 12.7; in data set [5] it was 4. The CC50 at 96 h was found to be 29.2 µM in data set [2] and 12.7 µM in data set [3].

Regarding `COc1cc(NCc2cc(OC)c(OC)c(OC)c2)ccc1-c1cnco1`, the results for the IC50 with Coxsackievirus B6, in the data set on Hepatitis C virus and in the data set with Coxsackievirus B3 were 11.6 µM, greater than 3.71 µM and 11.6 µM, respectively. In addition, the “Ratio CC50/IC50” value was 3.6 in data set [1], less than 9.9 in data set [4] and 3.6 in data set [5]. Further, the CC50 at 96 h in data set [2] is 36.6 µM; in data set [3], 41.6 µM.

As for `COc1cc(/N=C/c2cccs2)ccc1-c1cnco1`, the half-maximal inhibitory concentration (IC50) in the data set with Coxsackievirus B6 turned out to be 45.1 µM; in the data set with Hepatitis C virus, 5.72 µM; in the data set with Coxsackievirus B3, 101 µM. Moreover, the “Ratio CC50/IC50” value in data set [1] is recorded as 9; in data set [4], greater than 17.5; in data set [5] it was 4. Moreover, the values for the CC50 at 96 h in data set [2] and in data set [3] were greater than 100 µM and 406 µM, respectively.

As for `COc1cc(NCc2cccc(C)n2)ccc1-c1cnco1`, the IC50 in the data set on Coxsackievirus B6 came to 6.36 µM; in the data set on Hepatitis C virus, 2.4 µM; in the data set with Coxsackievirus B3 it was 14.5 µM. Also, the “Ratio CC50/IC50” value stood at 11.8 in data set [1], 26.1 in data set [4] and 5.2 in data set [5]. Further, the results for the CC50 at 96 h in data set [2] and in data set [3] were 62.7 µM and 75.2 µM, respectively.

Consider `COc1cc(NCc2scnc2C)ccc1-c1cnco1`, for which the figures for the IC50 in the data set on Coxsackievirus B6, in the data set on Hepatitis C virus and in the data set with Coxsackievirus B3 were 10.6 µM, 6.88 µM and 5.67 µM, respectively. The “Ratio CC50/IC50” value in data set [1] is 7; in data set [4] it was 8.5; in data set [5], 13. Moreover, the CC50 at 96 h in data set [2] worked out at 58.5 µM; in data set [3], 73.7 µM.

Take `COc1ccc(-c2cnco2)cc1NCc1cccs1`: the IC50 in the data set on Coxsackievirus B6 amounted to 11.3 µM; in the data set on Hepatitis C virus, 3.08 µM; in the data set with Coxsackievirus B3, 25.9 µM. Moreover, the “Ratio CC50/IC50” value in data set [1] is 4.8; in data set [4], greater than 32.5; in data set [5], 2.1. Besides, the figures for the CC50 at 96 h in data set [2] and in data set [3] were greater than 100 µM and 53.8 µM, respectively.

In the case of `COc1ccc2[nH]cc(CNc3ccc(-c4cnco4)c(OC)c3)c2c1`, the IC50 was greater than 7.07 µM in the data set on Coxsackievirus B6, 0.82 µM in the data set with Hepatitis C virus and greater than 7.07 µM in the data set with Coxsackievirus B3. Moreover, the CC50 at 96 h is greater than 100 µM in data set [2] and 36.7 µM in data set [3]. Moreover, the “Ratio CC50/IC50” value in data set [4] was greater than 122.

Take `COc1ccc(CNc2ccc(-c3cnco3)c(OC)c2)cn1`: the half-inhibitory concentration (IC50) in the data set on Coxsackievirus B6 is 10.1 µM; in the data set on Hepatitis C virus, 3.25 µM; with Coxsackievirus B3, 6.03 µM. For the same compound, the “Ratio CC50/IC50” value is 36.7 in data set [1], 17.5 in data set [4] and 61.5 in data set [5]. The CC50 at 96 h was determined as 56.8 µM in data set [2] and 371 µM in data set [3].

Turning to `COc1cc(/N=C/c2ccc([N+](=O)[O-])o2)ccc1-c1cnco1`, the IC50 was 4.88 µM in the data set with Coxsackievirus B6, 1.24 µM in the data set with Hepatitis C virus and greater than 7.88 µM in the data set with Coxsackievirus B3. The entries for the “Ratio CC50/IC50” value in data set [1] and in data set [4] were 2.8 and 16.5, respectively. In addition, the values for the CC50 at 96 h in data set [2] and in data set [3] were 20.5 µM and 13.7 µM, respectively.

`COc1cc(/N=C/c2ccncc2)ccc1-c1cnco1`: the IC50 in the data set with Coxsackievirus B6 was found to be 15.3 µM; with Hepatitis C virus, 1.61 µM; with Coxsackievirus B3, 34.9 µM. The “Ratio CC50/IC50” value in data set [1] is listed as 15.6; in data set [4] it was greater than 62.1; in data set [5], 6.8. In addition, the results for the CC50 at 96 h in data set [2] and in data set [3] were greater than 100 µM and 239 µM, respectively.

As to `COc1cc(NCc2c[nH]c3ccccc23)ccc1-c1cnco1`, the IC50 with Coxsackievirus B6 stood at 23.2 µM; in the data set on Hepatitis C virus, 1.62 µM; in the data set on Coxsackievirus B3 it was 9.95 µM. Moreover, the entries for the “Ratio CC50/IC50” value in data set [1], in data set [4] and in data set [5] were 2.1, 34.6 and 4.9, respectively. The CC50 at 96 h was determined as 56.1 µM in data set [2] and 48.3 µM in data set [3].

Regarding `COc1cc(NCc2ccc(-c3ccccc3)s2)ccc1-c1cnco1`, the IC50 was 0.75 µM in the data set on Coxsackievirus B6, 0.92 µM in the data set on Hepatitis C virus and 2.26 µM in the data set on Coxsackievirus B3. The “Ratio CC50/IC50” value is recorded as 9.1 in data set [1], 28.3 in data set [4] and 3 in data set [5]. Further, the CC50 at 96 h is 26 µM in data set [2] and 6.82 µM in data set [3].

For the compound `COc1cc(NCc2ccco2)ccc1-c1cnco1`, the IC50 was 6.96 µM with Coxsackievirus B6, 1.06 µM in the data set with Hepatitis C virus and 7.6 µM with Coxsackievirus B3. The “Ratio CC50/IC50” value in data set [1] worked out at 8.2; in data set [4] it was 75.4; in data set [5], 7.5. Moreover, the values for the CC50 at 96 h in data set [2] and in data set [3] were 80 µM and 57 µM, respectively.

On to `NC(=O)c1ncn([C@@H]2O[C@H](CO)[C@@H](O)[C@H]2O)n1` [RIBAVIRIN], for which the IC50 in the data set with Coxsackievirus B6 worked out at 910 µM; in the data set with Coxsackievirus B3, 1580 µM. For the same compound, the CC50 at 96 h in data set [3] turned out to be 8190 µM. Moreover, the “Ratio CC50/IC50” value in data set [5] came out at 5.2.

As for `COc1cc(NCc2cccnc2Cl)ccc1-c1cnco1`, the IC50 with Coxsackievirus B6 was 3.33 µM; in the data set on Hepatitis C virus, 1.8 µM; in the data set with Coxsackievirus B3 it was 4.21 µM. Moreover, the figures for the “Ratio CC50/IC50” value in data set [1], in data set [4] and in data set [5] were 12.2, 22.5 and 9.7, respectively. The CC50 at 96 h in data set [2] was 40.5 µM; in data set [3] it was 40.6 µM.

With `COc1cc(NCc2ccsc2)ccc1-c1cnco1`, the IC50 was 4.65 µM in the data set on Coxsackievirus B6, 1.25 µM with Hepatitis C virus and 3.66 µM in the data set with Coxsackievirus B3. In addition, the “Ratio CC50/IC50” value in data set [1] is 38.9; in data set [4], 50.5; in data set [5], 49.4. The CC50 at 96 h was 63.1 µM in data set [2] and 181 µM in data set [3].

`COc1cc(NC/C=C/c2ccccc2)ccc1-c1cnco1`: the half-inhibitory concentration (IC50) in the data set on Coxsackievirus B6 was 4.67 µM; with Hepatitis C virus it was 2.38 µM; in the data set on Coxsackievirus B3 it was 3.52 µM. Also, the “Ratio CC50/IC50” value in data set [1] is recorded as 15.5; in data set [4] it was greater than 42; in data set [5] it was 20.6. Further, the CC50 at 96 h in data set [2] was greater than 100 µM; in data set [3], 72.5 µM.
